From ChEMBL document CHEMBL4138213, “Synthesis and biological characterization of ubenimex-fluorouracil conjugates for anti-cancer therapy” (Eur J Med Chem, 2018)
Active and inactive are the calls of the source. The rule behind the calls is not given here.

Assays:
PLC-PRF-5 [1] = assay: Antiproliferative activity against human PLC/PRF/5 cells after 48 hrs by MTT assay; conditions: PLC-PRF-5, 48 h
Aminopeptidase N = biological target: T1, Aminopeptidase N (Sus scrofa, UniProt P15145); assay: Inhibition of porcine kidney CD13 using L-leucine-p-nitroanilide as substrate preincubated for 5 mins followed by substrate addition measured after 30 mins
T1 sequence (P15145 whole entry): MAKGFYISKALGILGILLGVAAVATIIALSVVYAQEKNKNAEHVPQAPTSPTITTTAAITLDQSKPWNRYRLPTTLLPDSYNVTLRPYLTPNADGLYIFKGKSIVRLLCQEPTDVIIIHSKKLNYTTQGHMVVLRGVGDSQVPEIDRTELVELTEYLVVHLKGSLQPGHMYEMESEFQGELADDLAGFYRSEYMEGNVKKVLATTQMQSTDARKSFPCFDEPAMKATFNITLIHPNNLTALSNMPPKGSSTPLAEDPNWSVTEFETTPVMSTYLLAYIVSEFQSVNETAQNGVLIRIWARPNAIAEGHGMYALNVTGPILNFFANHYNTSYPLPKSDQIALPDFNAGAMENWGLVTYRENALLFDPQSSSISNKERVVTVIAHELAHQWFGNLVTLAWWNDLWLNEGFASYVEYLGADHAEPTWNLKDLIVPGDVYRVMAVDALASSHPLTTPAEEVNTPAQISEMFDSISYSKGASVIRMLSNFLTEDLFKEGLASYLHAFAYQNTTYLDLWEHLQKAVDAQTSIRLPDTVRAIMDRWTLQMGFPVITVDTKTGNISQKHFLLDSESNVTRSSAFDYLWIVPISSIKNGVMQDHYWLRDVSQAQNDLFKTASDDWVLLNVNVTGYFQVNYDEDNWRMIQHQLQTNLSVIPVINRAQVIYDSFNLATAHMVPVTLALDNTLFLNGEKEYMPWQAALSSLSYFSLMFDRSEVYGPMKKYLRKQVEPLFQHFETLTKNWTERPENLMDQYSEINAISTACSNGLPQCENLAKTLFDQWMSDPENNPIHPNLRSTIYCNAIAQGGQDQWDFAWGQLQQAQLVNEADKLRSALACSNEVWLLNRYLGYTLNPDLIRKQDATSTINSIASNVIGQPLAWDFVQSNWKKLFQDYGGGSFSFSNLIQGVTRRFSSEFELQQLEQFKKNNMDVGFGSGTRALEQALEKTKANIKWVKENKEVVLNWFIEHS

cells [2] = conditions: Homo sapiens, ES-2, 48 h
Description: Antiproliferative activity against human ES2 cells after 48 hrs by MTT assay

PLC-PRF-5 [3] = assay: Induction of apoptosis in human PLC/PRF/5 cells assessed as late apoptotic cells at 20 uM in presence of ubenimex after 48 hrs by annexin-V-FITC/propidium iodide staining-based flow cytometric method (reference value: 0.341%); type: functional
PLC-PRF-5 [4] = assay: Induction of apoptosis in human PLC/PRF/5 cells assessed as viable cells at 20 uM after 48 hrs by annexin-V-FITC/propidium iodide staining-based flow cytometric method (reference value: 93.7%); type: functional; conditions: PLC-PRF-5, 48 h, read-out: Activity
[5] = Drug level in Wistar rat plasma treated with (5-fluoro-2,4-dioxo-3,4-dihydropyrimidin1(2H)-yl)methyl-2-((S)-2-((2S,3R)-3-amino-2-hydroxy-4-phenylbut-anamido)-4-methylpentanamido)acetate hydrochloride assessed as carboxylesterase-mediated compound formation at 80 mg/kg, iv by HPLC-MS/MS analysis; type: ADME, organism-based; conditions: in vivo
[6] = Antiproliferative activity against human H7402 cells after 48 hrs by MTT assay; conditions: H7402, 48 h
HCT-116 [7] = assay: cells; conditions: Homo sapiens, HCT-116, 48 h
PLC-PRF-5 [8] = assay: Induction of apoptosis in human PLC/PRF/5 cells assessed as necrotic cells at 20 uM after 48 hrs by annexin-V-FITC/propidium iodide staining-based flow cytometric method (reference value: 0.106%); type: functional
U-937 [9] = assay: Antiproliferative activity against human U937 cells in presence of ubenimex after 48 hrs by MTT assay; type: functional, cell-based; conditions: U-937, 48 h
PLC-PRF-5 [10] = assay: Induction of apoptosis in human PLC/PRF/5 cells assessed as viable cells at 20 uM in presence of ubenimex after 48 hrs by annexin-V-FITC/propidium iodide staining-based flow cytometric method (reference value: 93.7%); type: functional; conditions: PLC-PRF-5, 48 h, read-out: Activity
H22 = assay: Antitumor activity against 5-FU-resistant […] cells xenografted in Kunming mouse at 20 mg/kg, ip after 14 days; type: functional, organism-based
[11] = Drug level in human plasma treated with (5-fluoro-2,4-dioxo-3,4-dihydropyrimidin1(2H)-yl)methyl-2-((S)-2-((2S,3R)-3-amino-2-hydroxy-4-phenylbut-anamido)-4-methylpentanamido)acetate hydrochloride at 4 mg/ml after 8 hrs by HPLC method; type: ADME, cell-free
HCT-116 [12] = assay: cells; conditions: Homo sapiens, HCT-116, 48 h; remark: listed apart in the source
PLC-PRF-5 [13] = assay: Antiproliferative activity against human PLC/PRF/5 cells in presence of ubenimex after 48 hrs by MTT assay; type: functional, cell-based; conditions: PLC-PRF-5, 48 h
A549 = assay: Antiproliferative activity against human A549 cells after 48 hrs by MTT assay; conditions: A549, 48 h
[14] = Terminal Half life in Wistar rat at 80 mg/kg, iv after 0.05 to 24 hrs by HPLC-MS/MS analysis; type: ADME, organism-based; conditions: Wistar, in vivo, read-out: beta t1/2 (converted)
Rattus norvegicus = assay: VRT (0 to infinity) in Wistar rat at 80 mg/kg, iv after 0.05 to 24 hrs by HPLC-MS/MS analysis; type: ADME, organism-based; conditions: in vivo
U-937 [15] = assay: cells; conditions: Homo sapiens, U-937, 48 h
Description: Antiproliferative activity against human U937 cells after 48 hrs by MTT assay

[16] = AUC (0 to infinity) in Wistar rat at 80 mg/kg, iv after 0.05 to 24 hrs by HPLC-MS/MS analysis; type: ADME, organism-based; design: dose 80 mg/kg, time infinity, route intravenous; conditions: in vivo
[17] = Apparent clearance in Wistar rat at 80 mg/kg, iv after 0.05 to 24 hrs by HPLC-MS/MS analysis; type: ADME, organism-based; conditions: in vivo, read-out: CL(app) (converted)
PLC-PRF-5 [18] = assay: Downregulation of CD13 expression in human PLC/PRF/5 cells at 10 uM in presence of ubenimex after 48 hrs by flow cytometric method; type: functional, cell-based
PLC-PRF-5 [19] = assay: Induction of apoptosis in human PLC/PRF/5 cells assessed as early apoptotic cells at 20 uM in presence of ubenimex after 48 hrs by annexin-V-FITC/propidium iodide staining-based flow cytometric method (reference value: 5.82%); type: functional
HepG2 [20] = assay: cells; conditions: Homo sapiens, HepG2, 48 h
U-266 [21] = assay: Antiproliferative activity against human U266 cells after 48 hrs by MTT assay; conditions: U-266, 48 h
cells [22] = conditions: Homo sapiens, H7402, 48 h
[23] = Cmax in Wistar rat at 80 mg/kg, iv after 0.05 to 24 hrs by HPLC-MS/MS analysis; type: ADME, organism-based; design: dose 80 mg/kg, route intravenous; conditions: in vivo
cells [24] = conditions: Homo sapiens, ES-2, 48 h; remark: listed apart in the source
PLC-PRF-5 [25] = assay: Induction of apoptosis in human PLC/PRF/5 cells assessed as early apoptotic cells at 20 uM after 48 hrs by annexin-V-FITC/propidium iodide staining-based flow cytometric method (reference value: 5.82%); type: functional
[26] = MRT (0 to infinity) in Wistar rat at 80 mg/kg, iv after 0.05 to 24 hrs by HPLC-MS/MS analysis; type: ADME, organism-based; conditions: Wistar, in vivo
HepG2 [27] = assay: cells; conditions: Homo sapiens, HepG2, 48 h; remark: listed apart in the source
PLC-PRF-5 [28] = assay: Downregulation of CD13 expression in human PLC/PRF/5 cells at 10 uM after 48 hrs by flow cytometric method; type: functional, cell-based
U-266 [29] = assay: Antiproliferative activity against human U266 cells in presence of ubenimex after 48 hrs by MTT assay; type: functional, cell-based; conditions: U-266, 48 h
PLC-PRF-5 [30] = assay: Induction of apoptosis in human PLC/PRF/5 cells assessed as late apoptotic cells at 20 uM after 48 hrs by annexin-V-FITC/propidium iodide staining-based flow cytometric method (reference value: 0.341%); type: functional
[31] = Volume of distribution during elimination phase in Wistar rat at 80 mg/kg, iv after 0.05 to 24 hrs by HPLC-MS/MS analysis; type: ADME, organism-based; conditions: in vivo, read-out: Vz
PLC-PRF-5 [32] = assay: Induction of apoptosis in human PLC/PRF/5 cells assessed as necrotic cells at 20 uM in presence of ubenimex after 48 hrs by annexin-V-FITC/propidium iodide staining-based flow cytometric method (reference value: 0.106%); type: functional

Which IC50 (PLC-PRF-5 [1]) does the source give for `CC(C)C[C@H](NC(=O)[C@@H](O)[C@H](N)Cc1ccccc1)C(=O)N[C@@H](C)C(=O)OCn1cc(F)c(=O)[nH]c1=O` here?
The IC50 was 24.2 µM.

What about the IC50 (Aminopeptidase N) of the same compound?
Its IC50 is 0.17 µM.

And the IC50 (cells [2])?
Its IC50 is 25.3 µM.

Which IC50 (PLC-PRF-5 [1]) does the source give for `CC(C)C[C@H](NC(=O)[C@@H](O)[C@H](N)Cc1ccccc1)C(=O)OCn1cc(F)c(=O)[nH]c1=O` here?
Its IC50 is 18.4 µM.

What about the IC50 (Aminopeptidase N) of the same compound?
Its IC50 is 3.18 µM.

And the IC50 (cells [2])?
The IC50 was 26.1 µM.

With `CC(C)C[C@H](NC(=O)[C@@H](O)[C@H](N)Cc1ccccc1)C(=O)NCCCCCC(=O)OCn1cc(F)c(=O)[nH]c1=O` as the compound, how does the IC50 (PLC-PRF-5 [1]) read?
The IC50 was 60.1 µM.

And the IC50 (Aminopeptidase N)?
Its IC50 is 1.83 µM.

What about the IC50 (cells [2]) of the same compound?
The IC50 was 104 µM.

What does the source list for `O=c1[nH]cc(F)c(=O)[nH]1` [FLUOROURACIL]?
Activity (PLC-PRF-5 [3]): 2.38%; viability at 20 µM (PLC-PRF-5 [4]): 73.1%; Drug metabolism [5]: Metabolite_Detected; IC50 [6]: 21.9 µM; IC50 (HCT-116 [7]): 53.8 µM; Activity (PLC-PRF-5 [8]): 0%; IC50 (U-937 [9]): 9.56 µM; viability at 20 µM (PLC-PRF-5 [10]): 64.3%; Activity (H22): inactive; Drug metabolism [11]: Metabolite_Detected; IC50 (HCT-116 [12]): 44.1 µM; IC50 (PLC-PRF-5 [13]): 22.8 µM; IC50 (PLC-PRF-5 [1]): 35.7 µM; IC50 (A549): 17 µM; half-life [14]: 2.35 h; VRT (Rattus norvegicus): 4.205 hr2; IC50 (U-937 [15]): 28.8 µM; AUC(0-inf) [16]: 13600 ng·h/mL; clearance [17]: 98.4 mL/min/kg; Activity (PLC-PRF-5 [18]): Active; Activity (PLC-PRF-5 [19]): 33.3%; IC50 (HepG2 [20]): 14.5 µM; IC50 (U-266 [21]): 66.2 µM; IC50 (cells [22]): 17.6 µM; Cmax [23]: 3810 ng/mL; IC50 (cells [24]): 37.1 µM; Activity (PLC-PRF-5 [25]): 20.1%; MRT inf [26]: 2.48 h; IC50 (HepG2 [27]): 18.4 µM; Activity (PLC-PRF-5 [28]): inactive; IC50 (U-266 [29]): 43.5 µM; Activity (PLC-PRF-5 [30]): 6.8%; Vd [31]: 20.1 L/kg; IC50 (cells [2]): 71.5 µM; Activity (PLC-PRF-5 [32]): 0%
